The text below walks through data of publication PMC4186430, “Modeling of age-dependent amyloid accumulation and γ-secretase inhibition of soluble and insoluble Aβ in a transgenic mouse model of amyloid deposition” (Pharmacology Research & Perspectives, 2013).

One assay concerns soluble Aβ40 production. The experiment in a line: PKPD turnover model of MRK-560 inhibition of soluble Aβ40 production (models A, B, C). Type of assay: in vivo, Tg2576 transgenic mice. Conditions: for IC50: Mus musculus. The method, then: In a second step, drug effect data were added to the AP analysis in order to develop an integrated PKPD model that incorporated both age-dependent AP and an age-dependent drug effect. To this end, the initially developed logistic model (eq. 3) was combined with a turnover model (Dayneka et al. [1993]; Jusko and Ko [1994]). This part of the analysis was only performed for soluble and insoluble Aβ40, as drug effect data for Aβ42 were not available from all studies. In this approach, the age-dependent AP causing an increase in soluble Aβ40 production (Kin,sol) was described following equations (4 and 5): [drawing 4] (4) [drawing 5] (5) in which Kin,sol and kout,sol corresponded to the production and loss of soluble Aβ40, respectively.
The inhibitory effect of MRK-560 on soluble Aβ40 was modeled using a turnover model (eq. 4), where the production of soluble Aβ40 was inhibited by the drug concentration. The model took into account the time delay between changes in plasma concentration of the drug and changes insoluble Aβ40 levels. Three types of drug effect models were evaluated: (A) absolute (eq. 6), (B) relative change from the baseline (eq. 7), and (C) modified relative change from the baseline (eq. 7). In model B the IC50(solAβ40) was constant, while in model C it was dependent on the soluble Aβ40 levels via a linear function as shown in equation (8).
Kin,sol corresponded to the age-dependent production of soluble Aβ40, kout,sol corresponded to the loss of soluble Aβ40, Imax was a maximum drug-induced soluble Aβ40 reduction (either absolute or relative reduction from the baseline for eqs. 6 and 7, respectively), CBr represented the brain concentrations, IC50 was a concentration which induced half of the maximum inhibition, while AP corresponded to the AP, described using equation (3). Additionally, parameter SL represented a slope of the linear relationship between absolute Aβ40 levels and IC50.
Changes in soluble Aβ40 were assumed to change the production of insoluble Aβ40. This effect was modeled using a turnover model and was described using equations (9–11): [drawing 9] (9) [drawing 10] (10) [drawing 11] (11) where Kin,insol was the production of insoluble Aβ40, which was dependent on the soluble Aβ40 levels, kout,insol was the loss of insoluble Aβ40, and SCALE was the scaling function between soluble and insoluble Aβ40 levels. Similar as in equation (3), α2 from equation (11) was the upper asymptote in the logistic function, ECi2 was a point of inflection and P2 was the slope parameter. A graphical representation of the PKPD model can be found in Figure 1.
All modeling analyses were performed in NONMEM (version 7.1.0, ICON Development Solutions, Ellicott City, MD [Schoemaker and Cohen [1996]]). The best models were chosen based on the analysis of their objective function, the precision of parameter estimates, and goodness-of-fit plots. The analysis of NONMEM output was performed using R software (R Development Core Team [2008]) and Xpose4 package (Jonsson and Karlsson [1998]). The 90% prediction intervals were calculated using the visual predictive check (VPC) as described by (Post et al. [2008]). In brief, 1000 simulations of the data were performed using final parameter estimates and 5th, 50th, and 95th percentiles were calculated.

Another assay deals with total Aβ40. Also on record: method as in Best et al. [2007]. Conditions: 12-month-old Tg2576 mice; ref Best et al. [2007]; cited from earlier work.
Where [1] appears, read: model A (absolute drug effect), estimate (SE%).

Each structure is given as a SMILES string.

One may read the IC50 as the concentration that inhibits the measured activity by half. Turning to `O=S(=O)(NC1CCC(c2cc(F)ccc2F)(S(=O)(=O)c2ccc(Cl)cc2)CC1)C(F)(F)F` (stereo not drawn) [MRK-560, N-[cis-4-[(4-chlorophenyl)-sulfonyl]-4-(2,5-difluorophenyl)cyclohexyl]-1,1,1-trifluoromethanesulfonamide], the IC50 with soluble Aβ40 production (setting [1]) was 90 nM; with soluble Aβ40 production (model B (relative drug effect, constant IC50), estimate (SE%)), 190 nM; in the assay with soluble Aβ40 production (model C, 5-month-old Tg2576 mice, brain concentration) it was 110 nM; with soluble Aβ40 production (model C, 25-month-old Tg2576 mice, brain concentration), 12000 nM. Further, the Imax with soluble Aβ40 production (final model (model C)) was 86%; in the assay with soluble Aβ40 production (setting [1]), 59 (4) pg/mg; in the assay on soluble Aβ40 production (model B (relative drug effect), estimate (SE%)), 88 (10) %. Further, the “decrease in total Aβ40 levels” value in the assay on total Aβ40 is 43%.
